Reference: patent US20250332132A1, “SELENIUM-CONTAINING SUBSTANCE FOR TREATMENT OF CANCER” (SHANGHAI INSTITUTE OF NUTRITION AND HEALTH, CHINESE ACADEMY …, priority 2022, published 2025)

What was measured:
[1] = tested on: CD45+ immune cells, CD25+Foxp3+ Treg cells, IL-17a+ TH17 cells; test: Flow cytometry of immune cells in LLC xenograft tumors; assay type: in vivo, mouse (C57BL/6J)
Protocol: Preparation of single-cell suspension from mouse tumor cells: 200 mg of mouse tumor tissue was obtained, cut into pieces and added to 2.43 ml of tumor digestion solution, followed by digestion in a 37° C. shaking water bath for 30 minutes. Flow cytometry staining included surface antigen staining and intracellular factor (cytokines and transcription factors) staining. For the cytokine detection, broad-spectrum activation inhibitors (PMA, ionomycin, or BFA, added at a ratio of 1:1000) were first prepared with the RPMI-1640 medium. 100 μl of each reagent was added to resuspend the cells, and the cells were then transferred to a 96-well plate and treated in a 37° C. cell incubator for 4-6 h. Subsequently, 200 μl of FACS buffer was added, and the cells were pipetted to mix evenly before transferred to a 1.5 ml eppendorf tube. The tube was centrifuged at 350 g for 5 minutes, and the supernatant was carefully aspirated. Cells were resuspended in 100 μl of PBS. For the surface antigen staining, the above steps were omitted. The cell suspension was placed on ice, and live/dead dye (at a ratio of 1:1000) was added. Staining was performed on ice in darkness for 30 minutes. Cells were washed with 1 ml of PBS, centrifuged at 350 g for 5 minutes, and the supernatant was carefully removed. The cell precipitate was resuspended in the FACS buffer, and the blocking antibody CD16/CD32 was added at a ratio of 1:200. The mixture was placed on ice in darkness for 30 minutes. Subsequently, surface antibodies were added at a ratio of 1:200: CD45, CD3, CD4, and CD25 antibodies were sequentially added for Treg cell surface staining; CD45, CD3, and CD4 antibodies were sequentially added for Th17 cell staining. Incubation was performed on ice in darkness for 30 minutes. Cells were washed with 1 ml of the FACS buffer, then centrifuged at 350 g for 5 minutes, and the supernatant was carefully removed. For intracellular factor staining, 250 μl of the fixation/permeabilization solution was added, and the cells were incubated on ice in darkness for 2 h. Then, 1 ml of the fixation/permeabilization wash buffer was added, the cells were centrifuged at 500 g for 5 minutes, and the supernatant was carefully removed. Cells were resuspended in the fixation/permeabilization wash buffer, and intracellular antibodies Foxp3 and IL-17A were added at a ratio of 1:200. The cells were incubated on ice in darkness for 30 minutes. After washing with 1 ml of the FACS buffer and centrifugation at 500 g for 5 minutes, the supernatant was carefully removed. Cells were resuspended in 200 μl of the FACS buffer and prepared for flow cytometry analysis.

[2] = tested on: LLC cell subcutaneous xenograft tumors; test: Subcutaneous LLC xenograft tumor model in mice (tumor growth, volume, weight); assay type: in vivo, mouse (C57BL/6J)
Protocol: FIG. 1 panel A: Experimental pattern diagram. Mice were first subcutaneously injected with LLC cells (2*10^5 cells per mouse) to establish xenograft tumors. After 14 days of tumor formation, mice received SeMet treatment for two weeks, with intraperitoneal injection of SeMet at a dose of 2 mg/kg, 5 times per week; FIG. 1 panel B: Tumor growth statistical curve in mice; FIG. 1 panel C: Representative photographic results of mouse tumors.
FIG. 5 illustrates the therapeutic effects of SeMet and PD-1 antibody on LLC cell subcutaneous xenograft tumors in mice. FIG. 5 panel A: Experimental pattern diagram. Mice were first subcutaneously injected with LLC cells (2*10^5 cells per mouse) to establish xenograft tumors. After 14 days of tumor formation, mice were treated with SeMet and PD-1 antibody alone or in combination by intraperitoneal injection for two weeks. The dosage of SeMet was 2 mg/kg, 5 times per week; the dosage of PD-1 antibody was 200 μg per mouse, 2 times per week; FIG. 5 panel B: Tumor growth statistical curve in mice; FIG. 5 panel C: Ratio of tumor to body weight in mice; FIG. 5 panel D: Representative photographic results of mouse tumors.
All animal experiments were approved by the Animal Ethics Committee of the Institute of Nutrition Sciences, Shanghai Institutes for Biological Sciences, Chinese Academy of Sciences, and were conducted in accordance with the protocols approved by the Animal Care and Use Committee of Shanghai Institutes for Biological Sciences. Six-week-old C57BL/6J mice were purchased from Shanghai Slake Experimental Animal Co., Ltd. and were housed in an SPF-grade animal facility. […] The tumor size was measured every two days, and the tumor volume (mm^3) was calculated using the following formula: ½×a×b^2, wherein a was the long diameter and b was the short diameter of the tumor. After the mice were euthanized, the tumors were excised, weighed, and the average weight of tumors in each group was calculated. The excised tumors were fixed with paraformaldehyde for subsequent immunohistochemical or immunofluorescence analysis.
C57BL/6J mice were subcutaneously injected with LLC cells (2*10^5 cells per mouse) to establish xenograft tumors. After 14 days of tumor formation, mice received SeMet treatment for two weeks (FIG. 1 panel A).
Subsequently, we investigated the therapeutic effects of SeMet and PD-1 antibody used alone or in combination on LLC cell subcutaneous xenograft tumors in mice. Mice were first subcutaneously injected with LLC cells (2*10^5 cells per mouse) to establish xenograft tumors. After 14 days of tumor formation, mice were treated with SeMet and PD-1 antibody alone or in combination by intraperitoneal injection for two weeks. The dosage and frequency of SeMet were the same as previously described, while the dosage of PD-1 antibody was 200 μg per mouse, 2 times per week (FIG. 5 panel A).
An L-selenomethionine was used to construct an N-acetyl-selenomethionine (N-Ac-SeMet) to improve its stability. To verify the therapeutic effect of the N-acetyl-selenomethionine on lung cancer, C57BL/6J mice were subcutaneously injected with LLC cells (2*10^5 cells per mouse) to establish xenograft tumors and divided into four groups: control group, selenomethionine (SeMet) treated group, N-acetyl-selenomethionine (N-Ac-SeMet) treated group, and anti-PD1 treated group. After 14 days of tumor formation, the mice in each group were treated for two weeks.

[3] = tested on: Treg cells, IL-17a-secreting TH17 cells; test: Flow cytometry of Treg and TH17 cells in B16 xenograft tumors; assay type: in vivo, mouse (C57BL/6J)
Protocol: (§1) Preparation of single-cell suspension from mouse tumor cells: 200 mg of mouse tumor tissue was obtained, cut into pieces and added to 2.43 ml of tumor digestion solution, followed by digestion in a 37° C. shaking water bath for 30 minutes. Flow cytometry staining included surface antigen staining and intracellular factor (cytokines and transcription factors) staining. For the cytokine detection, broad-spectrum activation inhibitors (PMA, ionomycin, or BFA, added at a ratio of 1:1000) were first prepared with the RPMI-1640 medium. 100 μl of each reagent was added to resuspend the cells, and the cells were then transferred to a 96-well plate and treated in a 37° C. cell incubator for 4-6 h. Subsequently, 200 μl of FACS buffer was added, and the cells were pipetted to mix evenly before transferred to a 1.5 ml eppendorf tube. The tube was centrifuged at 350 g for 5 minutes, and the supernatant was carefully aspirated. Cells were resuspended in 100 μl of PBS. For the surface antigen staining, the above steps were omitted. The cell suspension was placed on ice, and live/dead dye (at a ratio of 1:1000) was added. Staining was performed on ice in darkness for 30 minutes. Cells were washed with 1 ml of PBS, centrifuged at 350 g for 5 minutes, and the supernatant was carefully removed. […]

CD4 and Foxp3 = test: qPCR of CD4 and Foxp3 expression in LLC xenograft tumors; assay type: in vivo, mouse (C57BL/6J); details: vs control group, FIG. 7A
Protocol: After the cells were cultured or treated, the medium was discarded, and the cells were washed once with ice-cold PBS. Then, 1 mL of Trizol reagent was added, and the cells were completely blown down. If it was for the tissue, 10-20 mg of tissue was homogenized into a homogenate using a grinder, with the addition of steel beads and 1 mL of Trizol. 200 μL of chloroform was added into the cell or tissue homogenate in 1 mL of Trizol, mixed vigorously, and placed on ice for 5 minutes. The mixture was centrifuged at 12,000 rpm for 10 minutes at 4° C. Then, 400 μL of the supernatant was carefully aspirated and added to an equal volume of isopropanol, vigorously mixed, and placed on ice for 15 minutes and centrifuged again at 12,000 rpm for 10 minutes at 4° C. Afterwards, a white RNA precipitate was visible at the bottom. The supernatant was carefully discarded, and 1 ml of 75% ethanol (diluted with DEPC-treated water) was added. […] A certain volume of DEPC-treated water was added to dissolve the RNA, and the concentration was measured. […] The genomic DNA removal reaction system was as follows: According to the gene primers to be detected, the above-mentioned Mix without the cDNA template was prepared, mixed thoroughly, and kept on ice until use. […] The detection program was as follows: After detection, the relative gene expression levels were calculated using the 2^−┐┐T method.

[4] = Selenium content in subcutaneous xenograft tumors; assay type: in vivo, mouse; details: mice, after SeMet treatment
[5] = tested on: Treg cells, IL-17a-secreting TH17 cells; test: Flow cytometry of Treg and TH17 cells in CT26 colon tumors; assay type: in vivo, mouse (BALB/C)
Protocol: as §1

selenoproteins = test: qPCR / Western blot of selenoprotein expression in LLC xenograft tumors; assay type: in vivo, mouse (C57BL/6J)
colon cancer CT26 cells = test: Orthotopic CT26 colon cancer model in mice; assay type: in vivo, mouse (BALB/C); details: BALB/C mice, CT26 tumor pieces implanted orthotopically at cecal end; treatment from second day; effects similar to anti-PD1; FIG. 12 A-B
Description: To verify the therapeutic effect of selenomethionine (SeMet) on colon cancer, BALB/C mice were subcutaneously inoculated with colon cancer CT26 cells. After subcutaneous xenograft tumors grew to a certain size, the tumors were cut into 1 mm*1 mm*1 mm pieces that were then orthotopically implanted at the cecal end of the mice. SeMet intervention was initiated on the second day after orthotopic tumor formation.

PD-L1 = test: qPCR, WB and immunofluorescence of PD-L1 expression in LLC xenograft tumors; assay type: in vivo, mouse (C57BL/6J); details: immunofluorescence, FIG. 4
B16 melanoma cells = test: Subcutaneous B16 melanoma xenograft tumor model in mice; assay type: in vivo, mouse (C57BL/6J); details: C57BL/6J mice, B16 2*10^5 cells s.c.; treated two weeks from day 14; FIG. 10
Protocol: To verify the therapeutic effect of selenomethionine (SeMet) on melanoma, C57BL/6J mice were subcutaneously injected with B16 melanoma cells (2*10^5 cells per mouse) to establish xenograft tumors. After 14 days of tumor formation, the mice were treated with SeMet for two weeks (FIG. 10 panel A).

[6] = NSCLC subcutaneous xenograft tumor model, vs control group, summary statement
[7] = NSCLC subcutaneous xenograft tumor model, summary statement

C[Se]CC[C@H](NC(C)=O)C(=O)O [N-Ac-SeMet, N-acetyl-selenomethionine]
proportion of Treg (CD25+Foxp3+) cells in tumors ([1]; LLC tumors, flow cytometry, FIG. 9 A-B): significantly reduced
proportion of Th17 (IL-17a+) cells in tumors ([1]; LLC tumors, flow cytometry, FIG. 9 C-D): significantly increased
average tumor weight ([2]; LLC s.c. tumors, end of treatment, vs control, p<0.05, FIG. 8C): significantly lower than those in the control group
tumor weight-to-body weight ratio ([2]; LLC s.c. tumors, end of treatment, vs control, p<0.05, FIG. 8D): significantly lower than those in the control group
tumor volume ([2]; LLC s.c. tumors, treated two weeks from day 14, Day 15, vs control, p<0.05, FIG. 8 A-B): significantly smaller than that in the control group

C[Se]CC[C@H](N)C(=O)O [SeMet, L-selenomethionine]
number of CD45+ immune cells ([1]; LLC tumors digested into single cells, flow cytometry, FIG. 7 B-C): significantly increased
proportion of CD25+Foxp3+ Treg cells ([1]; LLC tumors, flow cytometry, FIG. 7 D-E): significantly reduced
proportion of IL-17a-secreting TH17 cells ([1]; LLC tumors, flow cytometry, FIG. 7 F-G): significantly increased
number of Treg cells infiltrating the tumor ([1]; NSCLC tissues, flow sorting, summary statement): significantly reduced
proportion of Treg cells ([3]; FIG. 11 A, C): significantly reduced
proportion of IL-17a-secreting TH17 cells ([3]; FIG. 11 B, D): significantly increased
expression levels of CD4 and Foxp3 (mRNA) (CD4 and Foxp3): reduced
selenium content in subcutaneous xenograft tumors [4]: significantly increased
proportion of Treg cells ([5]; FIG. 12 C, E): significantly reduced
proportion of IL-17a-secreting TH17 cells ([5]; FIG. 12 D, F): increased
growth of subcutaneous LLC tumors (tumor growth curves) ([2]; C57BL/6J mice, LLC 2*10^5 cells s.c., after 14 days SeMet 2 mg/kg i.p. 5 times per week for two weeks, FIG. 1): effectively inhibit the growth of subcutaneous LLC tumors
tumor growth ([2]; LLC s.c. tumors, i.p. two weeks from day 14, SeMet 2 mg/kg 5 times per week, PD-1 antibody 200 μg per mouse 2 times per week, alone or combined, vs control, FIG. 5B): significantly reduced
tumor mass [2, 6]: significantly reduced
tumor volume [2, 6]: significantly reduced
tumor growth [2, 7]: significantly inhibit tumor growth
tumor volume and mass compared with the PD-1 group [2, 7]: no significant difference
ratio of tumor to body weight ([2]; same study as FIG. 5B, FIG. 5C): validated this result
visual inspection of excised subcutaneous mouse tumors ([2]; same study, FIG. 5D): significantly reduced
expression of SOD1 and GPX1 at the protein level (selenoproteins; LLC xenograft tumors, vs control group, WB, FIG. 3 M-N): significant increase
expression of selenoproteins SOD1, SOD2, GPX1, GPX2, GPX4, Sephs2, Sepx1, SelS, SelP, Txnrd1, Txnrd2, Txnrd3 at the mRNA level (selenoproteins; LLC xenograft tumors, vs control group, qPCR, FIG. 3 A-L): significant increase
expression of selenoproteins GPX1, GPX2, SOD1, SOD2, Sephs2, Sepx1, SelS, Txnrd1, Txnrd2, SelF, Selk, SelW, MT2 at the mRNA level (selenoproteins; LLC xenograft tumors, vs control group, qPCR, FIG. 6): increased
levels of major selenoproteins, including GPX1, GPX4 (selenoproteins; NSCLC tissues after treatment, summary statement): significantly increased
colon cancer growth (colon cancer CT26 cells): effectively inhibited
expression of PD-L1 (PD-L1): increased
growth of subcutaneous B16 tumors (B16 melanoma cells): effectively inhibited the growth of subcutaneous B16 tumors, with effects similar to anti-PD1 treatment
